Our source for the IC50 and CC50 values is ChEMBL document CHEMBL5329192, “Synthesis, biological activities, and future perspectives of steroidal monocyclic pyridines” (RSC Med Chem, 2023).

Series [1] deals with ECa-109 cell line. In words: Cytotoxicity against human Eca-109 cells assessed as reduction in cell viability incubated for 72 hrs by MTT assay. Conditions: ECa-109, 72 h. The series is classed as functional, cell-based. (Formazan colour is commonly taken as a measure of viable cells.)
The test system of series [2] is MGC-803. Description: Cytotoxicity against human MGC-803 cells assessed as reduction in cell viability incubated for 72 hrs by MTT assay. Format: functional, cell-based. Conditions: MGC-803, 72 h.
Series [3] relates to PC-3. In words: Cytotoxicity against human PC-3 cells assessed as reduction in cell viability incubated for 72 hrs by MTT assay. The note with it: PC-3, 72 h. Format: functional, cell-based.
Series [4] deals with MCF7. In words: Cytotoxicity against human MCF7 cells assessed as reduction in cell viability incubated for 72 hrs by MTT assay. The series is classed as functional, cell-based. The note with it: MCF7, 72 h.
Series [5] deals with A549. In words: Cytotoxicity against human A549 cells assessed as reduction in cell viability incubated for 72 hrs by MTT assay. The note with it: A549, 72 h. Format: functional, cell-based.
Series [6] relates to MCF7. In words: Antiproliferative activity against human MCF7 cells assessed as reduction in cell growth incubated for 48 hrs by MTT assay. Format: functional, cell-based. Conditions: MCF7, 48 h.
Series [7] deals with SK-OV-3. In words: Antiproliferative activity against human SK-OV-3 cells assessed as reduction in cell growth incubated for 48 hrs by MTT assay. The series is classed as functional, cell-based. The note with it: SK-OV-3, 48 h.
Series [8] deals with HeLa. In words: Antiproliferative activity against human HeLa cells assessed as reduction in cell growth incubated for 48 hrs by MTT assay. The series is classed as functional, cell-based.
For series [9], the system named is HepG2. In words: Antiproliferative activity against human HepG2 cells assessed as reduction in cell growth incubated for 48 hrs by MTT assay. Format: functional, cell-based. Conditions: HepG2, 48 h.
Series [10] is described as follows: Cytotoxicity against human HEp-2 cells assessed as reduction in cell viability incubated for 48 hrs by MTT assay. The series is classed as toxicity, cell-based.

What is called IC50 is the midpoint of a concentration-inhibition curve. As usually defined, the CC50 is the concentration that lowers cell viability or growth by half.

As for `C[C@]12CC[C@H]3[C@@H](CC=C4C[C@@H](O)CC[C@@]43C)[C@@H]1CC[C@@H]2c1cc(-c2ccc(Cl)cc2)c(C#N)c(N)n1`, the IC50 worked out at 48.9 µM in series [1]; 55 µM in [2]; 15.7 µM in series [3]; 26.2 µM in [4]; 43.9 µM in series [5].
In the same order, the values of `COc1cccc(-c2cc([C@H]3CC[C@H]4[C@@H]5CC=C6C[C@@H](O)CC[C@]6(C)[C@H]5CC[C@]34C)nc(N)c2C#N)c1` are > 64 µM, > 64 µM, 7.5 µM, 27.4 µM and > 64 µM.
In the same order, the values of `C[C@]12CC[C@H]3[C@@H](CC=C4C[C@@H](O)CC[C@@]43C)[C@@H]1CC[C@@H]2c1cc(-c2c(F)cccc2F)c(C#N)c(N)n1` are > 64 µM, 8.8 µM, 2 µM, 11.6 µM and 17.3 µM.
Take `C[C@]12CC[C@H]3[C@@H](CC=C4C[C@@H](O)CC[C@@]43C)[C@@H]1CC[C@@H]2c1cc(-c2ccc(F)cc2F)c(C#N)c(N)n1`: the IC50 in series [1] is 58 µM; in [2], 22.7 µM; in series [3] it was 3.5 µM; in series [4], 30.3 µM; in [5], > 64 µM.
Consider `COc1ccc(-c2cc([C@H]3CC[C@H]4[C@@H]5CC=C6C[C@@H](O)CC[C@]6(C)[C@H]5CC[C@]34C)nc(N)c2C#N)cc1OC`, for which the IC50 turned out to be 107 µM in series [6], 29.5 µM in [7], 107 µM in series [8] and 55.4 µM in [9].
`C[C@]12CC[C@H]3[C@@H](CC=C4C[C@@H](O)CC[C@@]43C)[C@@H]1CC[C@@H]2c1cc(-c2cccc(OCc3ccccc3)c2)c(C#N)c(N)n1`: the IC50 in series [6] is 41.1 µM; in series [7] it was 21.8 µM; in series [8], 22 µM; in series [9], 21.5 µM.
Consider `C[C@]12CC[C@H]3[C@@H](CC=C4C[C@@H](O)CC[C@@]43C)[C@@H]1CC[C@@H]2c1cc(-c2cccc(Cl)c2)c(C#N)c(N)n1`, for which the IC50 in [1] is > 64 µM; in [2], > 64 µM; in [3], 9.7 µM; in series [4] it was 29 µM; in series [5] it was 30.3 µM.
As for `C[C@]12CC[C@H]3[C@@H](CC=C4C[C@@H](O)CC[C@@]43C)[C@@H]1CC[C@@H]2c1cc(-c2ccc(Br)cc2)c(C#N)c(N)n1`, the IC50 worked out at 12 µM in series [6], 7.66 µM in [7], 12.2 µM in series [8] and 15.2 µM in series [9].
Turning to `CC(=O)O[C@H]1CC[C@@]2(C)C(=CC[C@H]3[C@@H]4CC[C@H](c5cc(-c6ccc(C#N)cc6)c(C#N)c(N)n5)[C@@]4(C)CC[C@@H]32)C1`, the CC50 at 48 h in [10] was 39.3 µM.
As to `CC(=O)O[C@H]1CC[C@@]2(C)C(=CC[C@H]3[C@@H]4CC[C@H](c5cc(-c6c(F)cccc6F)c(C#N)c(N)n5)[C@@]4(C)CC[C@@H]32)C1`, the CC50 at 48 h in series [10] was found to be 374 µM.
Same read-out and setting: for `CC(=O)O[C@H]1CC[C@@]2(C)C(=CC[C@H]3[C@@H]4CC[C@H](c5cc(-c6cccc(Cl)c6)c(C#N)c(N)n5)[C@@]4(C)CC[C@@H]32)C1` the value was 181 µM.
For `CCOc1ccc(-c2cc([C@H]3CC[C@H]4[C@@H]5CC=C6C[C@@H](O)CC[C@]6(C)[C@H]5CC[C@]34C)nc(N)c2C#N)cc1`, the IC50 was determined as 31.2 µM in series [6], 28.3 µM in series [7], 26.7 µM in series [8] and 26.7 µM in series [9].
With `C[C@]12CC[C@H]3[C@@H](CC=C4C[C@@H](O)CC[C@@]43C)[C@@H]1CC[C@@H]2c1cc(-c2ccncc2)c(C#N)c(N)n1`, the IC50 in series [6] was found to be 47.8 µM; in [7], 18.9 µM; in series [8] it was 73.3 µM; in [9] it was 103 µM.
Take `CC(=O)O[C@H]1CC[C@@]2(C)C(=CC[C@H]3[C@@H]4CC[C@H](c5cc(-c6ccc(Cl)cc6)c(C#N)c(N)n5)[C@@]4(C)CC[C@@H]32)C1`: in series [10], the CC50 at 48 h is 252 µM.
On to `COc1ccc(-c2cc([C@H]3CC[C@H]4[C@@H]5CC=C6C[C@@H](O)CC[C@]6(C)[C@H]5CC[C@]34C)nc(N)c2C#N)cc1O`, for which the IC50 was 17 µM in series [6], 17.3 µM in series [7], 15 µM in [8] and 50.2 µM in series [9].
Take `COc1ccccc1-c1cc([C@H]2CC[C@H]3[C@@H]4CC=C5C[C@@H](O)CC[C@]5(C)[C@H]4CC[C@]23C)nc(N)c1C#N`: the IC50 in series [1] was 19.7 µM; in series [2], 17 µM; in [3], 8 µM; in series [4], 45.2 µM; in [5] it was 20.7 µM.
For the compound `C[C@]12CC[C@H]3[C@@H](CC=C4C[C@@H](O)CC[C@@]43C)[C@@H]1CC[C@@H]2c1cc(-c2ccccc2F)c(C#N)c(N)n1`, the IC50 in [1] came to 17.8 µM; in series [2], 9.4 µM; in series [3] it was 3.2 µM; in [4], 10.1 µM; in series [5] it was 28.8 µM.
In the case of `COc1ccccc1-c1cc([C@H]2CC[C@H]3[C@@H]4CC=C5C[C@@H](OC(C)=O)CC[C@]5(C)[C@H]4CC[C@]23C)nc(N)c1C#N`, the CC50 at 48 h in series [10] was 299 µM.
Turning to `C[C@]12CC[C@H]3[C@@H](CC=C4C[C@@H](O)CC[C@@]43C)[C@@H]1CC[C@@H]2c1cc(-c2ccc(F)c(Br)c2)c(C#N)c(N)n1`, the IC50 in series [1] is > 64 µM; in [2] it was > 64 µM; in [3] it was 5.9 µM; in [4], 37.3 µM; in series [5], 56.2 µM.
`CC(=O)O[C@H]1CC[C@@]2(C)C(=CC[C@H]3[C@@H]4CC[C@H](c5cc(-c6ccc(F)cc6F)c(C#N)c(N)n5)[C@@]4(C)CC[C@@H]32)C1`: in series [10], the CC50 at 48 h stood at 174 µM.
Consider `COc1ccc(-c2cc([C@H]3CC[C@H]4[C@@H]5CC=C6C[C@@H](OC(C)=O)CC[C@]6(C)[C@H]5CC[C@]34C)nc(N)c2C#N)cc1`, for which the CC50 at 48 h in [10] was > 400 µM.
Consider `C[C@]12CC[C@H]3[C@@H](CC=C4C[C@@H](O)CC[C@@]43C)[C@@H]1CC[C@@H]2c1cc(-c2ccccc2Br)c(C#N)c(N)n1`, for which the IC50 in series [6] was determined as 33.9 µM; in series [7], 11.2 µM; in [8], 18.6 µM; in series [9], 28.4 µM.
The corresponding values for `C[C@]12CC[C@H]3[C@@H](CC=C4C[C@@H](O)CC[C@@]43C)[C@@H]1CC[C@@H]2c1cc(-c2ccc(OCc3ccccc3)cc2)c(C#N)c(N)n1` are 19 µM, 26.1 µM, 63.2 µM and 15.9 µM.
In the case of `COc1cccc(-c2cc([C@H]3CC[C@H]4[C@@H]5CC=C6C[C@@H](OC(C)=O)CC[C@]6(C)[C@H]5CC[C@]34C)nc(N)c2C#N)c1`, the CC50 at 48 h in [10] is 160 µM.
As to `C[C@]12CC[C@H]3[C@@H](CC=C4C[C@@H](O)CC[C@@]43C)[C@@H]1CC[C@@H]2c1cc(-c2cccc(Br)c2)c(C#N)c(N)n1`, the IC50 in [6] is 28.9 µM; in series [7], 17.7 µM; in series [8] it was 46.5 µM; in series [9], 41.2 µM.
In the same order, the values of `C[C@]12CC[C@H]3[C@@H](CC=C4C[C@@H](O)CC[C@@]43C)[C@@H]1CC[C@@H]2c1cc(-c2cccnc2)c(C#N)c(N)n1` are 30.2 µM, 92.2 µM, 105 µM and 75.5 µM.
In the case of `CC(=O)O[C@H]1CC[C@@]2(C)C(=CC[C@H]3[C@@H]4CC[C@H](c5cc(-c6ccccc6)c(C#N)c(N)n5)[C@@]4(C)CC[C@@H]32)C1`, the CC50 at 48 h in series [10] was 227 µM.
Turning to `C[C@]12CC[C@H]3[C@@H](CC=C4C[C@@H](O)CC[C@@]43C)[C@@H]1CC[C@@H]2c1cc(-c2ccc(OCc3ccccc3)c(OCc3ccccc3)c2OCc2ccccc2)c(C#N)c(N)n1`, the IC50 in [6] turned out to be 105 µM; in series [7], 33.9 µM; in series [8], 38.9 µM; in series [9] it was 41.4 µM.
The corresponding values for `C[C@]12CC[C@H]3[C@@H](CC=C4C[C@@H](O)CC[C@@]43C)[C@@H]1CC[C@@H]2c1cc(-c2ccco2)c(C#N)c(N)n1` are 18.8 µM, 13.9 µM, 16.3 µM and 25.8 µM.
The corresponding values for `C[C@]12CC[C@H]3[C@@H](CC=C4C[C@@H](O)CC[C@@]43C)[C@@H]1CC[C@@H]2c1cc(-c2cccc(O)c2)c(C#N)c(N)n1` are 6.28 µM, 7.02 µM, 7.36 µM and 13.8 µM.
Regarding `C[C@]12CC[C@H]3[C@@H](CC=C4C[C@@H](O)CC[C@@]43C)[C@@H]1CC[C@@H]2c1cc(-c2ccccc2Cl)c(C#N)c(N)n1`, the IC50 in series [1] stood at 30.1 µM; in series [2], 8.4 µM; in series [3] it was 3.7 µM; in series [4] it was 18.8 µM; in series [5], 33.3 µM.
For the compound `C[C@]12CC[C@H]3[C@@H](CC=C4C[C@@H](O)CC[C@@]43C)[C@@H]1CC[C@@H]2c1cc(-c2ccnc(Br)c2)c(C#N)c(N)n1`, the IC50 in series [1] was 22.3 µM; in series [2], 19.7 µM; in series [3] it was 7 µM; in series [4], > 64 µM; in series [5] it was 43.6 µM.
